The values below come from US8455544B2, “Synthetic triterpenoids and methods of use in the treatment of disease” (Reata Pharmaecuticals, Inc., priority 2008, dated 2013).

Assay [1] deals with ischemia-reperfusion induced renal damage. The assay is described as follows: Mouse model of ischemic acute renal failure (ischemia-reperfusion). The assay is classed as in vivo. The protocol:
FIGS. 1a-d—RTA 402 reduces renal damage following ischemia-reperfusion. Mice were administered RTA 402 at 2 mg/kg or simply the vehicle (sesame oil) daily by oral gavage beginning on […]. On Day 0, a clamp was placed on the left renal artery for 17 minutes and then removed to induce ischemia-reperfusion. (FIG. 1a) On Day 1, blood was collected from animals that were subjected to clamping and “sham” control animals that underwent surgery without clamping of the renal artery. Blood urea nitrogen (BUN) levels were measured as a surrogate for renal damage. (FIGS. 1b-d) Sections of kidneys from RTA 402-treated or vehicle-treated mice were scored for histological damage (FIGS. 1b & 1d) and inflammation (FIG. 1c). (FIG. 1d) Black arrows (vehicle group) show two of many severely damaged tubules in the outer medulla. Red arrows (RTA 402 group) show two of many undamaged tubules in the outer medulla.
In a mouse model of ischemic acute renal failure, the renal artery is clamped for approximately twenty minutes. After this time, the clamp is removed and the kidney is reperfused with blood. Ischemia-reperfusion results in renal damage and decreased renal function which can be assessed by blood urea nitrogen (BUN) levels, which become elevated following renal damage. As shown in FIGS. 1a-d, surgically-induced ischemia-reperfusion increased BUN levels by approximately 2-fold.

A short description of assay [2]: Serum creatinine in toxicology study, monkeys. The conditions noted are these: oral, once daily for 28 days. The assay is classed as in vivo, cynomolgus monkeys. The protocol: (§1) FIGS. 3a-d—RTA 402 reduces serum creatinine levels in monkeys, dogs, and rats. (FIG. 3a) Cynomolgus monkeys were administered RTA 402 orally at the indicated doses once daily for 28 days. The percent reduction of serum creatinine on Day 28 in RTA 402-treated monkeys relative to vehicle-treated control monkeys is shown. (FIG. 3b) RTA 402 was administered orally to beagle dogs at the indicated doses daily for three months. Control animals received vehicle (sesame oil). The percent change in serum creatinine at the three-month time point relative to baseline is shown. (FIG. 3c) Sprague-Dawley rats were administered RTA 402 orally at the indicated doses once daily for a period of one month. The percent reduction of serum creatinine at study completion in RTA 402-treated rats relative to vehicle-treated control rats is shown. (FIG. 3d) Sprague-Dawley rats were administered the amorphous form of RTA 402 orally at the indicated doses once daily for a period of three months. The percent reduction of serum creatinine at study completion in RTA 402-treated rats relative to vehicle-treated control rats is shown. […] For example, a reading of −15 on this axis indicates a 15% reduction in serum creatinine.
(§2) Serum creatinine has been measured in several animal species treated with RTA 402 in the course of toxicology studies. […]

A short description of assay [3]: Serum creatinine in toxicology studies, rats. Conditions: oral, once daily, one month (crystalline) or three months (amorphous form). The assay is classed as in vivo, Sprague-Dawley rats. The protocol: as §1, §2
Assay [4] has as its system patients with diabetic nephropathy. Kind of assay: Phase II clinical trial in patients with diabetic nephropathy (type 2 diabetes with CKD). The class given is in vivo, human. As to the method: Serum creatinine has also been measured in patients with chronic kidney disease (CKD) enrolled in an open label Phase II clinical trial of RTA 402. These patients received RTA 402 once daily at three dose levels, 25 mg, 75 mg and 150 mg, for a total of 28 days.
A primary outcome measure for this study is determining the effects of RTA 402 administered orally at the three dose strengths on the glomerular filtration rate (as estimated by the MDRD formula) in patients with diabetic nephropathy.
Secondary outcome measures include: (1) an evaluation of the safety and tolerability of oral RTA 402 administered orally at the three different doses, in this patient population; (2) an evaluation of the effects of RTA 402 administered orally at the three dose strengths on the serum creatinine level, creatinine clearance, and urine albumin/creatinine ratio in patients with diabetic nephropathy; (3) an evaluation of the effects of RTA 402 administered orally at the three dose strengths on hemoglobin A1c in all patients enrolled and on insulin response by the hyperinsulinemic euglycemic clamp test in patients enrolled at only one of the study centers; (4) an evaluation of the effects of RTA 402 at the three different doses on a panel of markers of inflammation, renal injury, oxidative stress, and endothelial cell dysfunction.
The patient population selected for this study all had type 2 diabetes with CKD. Most had been diagnosed with poor glycemic control for two decades. CKD was established through elevated serum creatinine (SCr) levels. Most of the patients had been diagnosed with cardiovascular disease (CVD) and most were receiving standard of care (SOC) treatment for diabetes, CKD and CVD, (e.g., insulin, ACEI/ARB, β-blocker, diuretic, and statin). The baseline demographic can be summarized as follows:
The patient inclusion criteria were as follows: (1) diagnosis of type 2 diabetes; (2) serum creatinine in women 1.3-3.0 mg/dL (115-265 μmol/L), inclusive, and in men 1.5-3.0 mg/dL (133-265 μmol/L), inclusive; (3) patient must agree to practice effective contraception; (4) patient must have a negative urine pregnancy test within 72 hours prior to the first dose of study medication; (5) patient is willing and able to cooperate with all aspects of the protocol and is able to communicate effectively; (6) patient is willing and able to provide written informed consent to participate in this clinical study. […]

The subject of assay [5] is circulating endothelial cells (CECs). The assay is described as follows: Circulating endothelial cells (CECs) and iNOS-positive CECs, Phase II study. The class given is in vivo, human. From the text: The mean number of CECs in cells/mL is shown for intent-to-treat (ITT) and elevated baseline groups, both before and after the 28 day RTA treatment. The reduction for the Intent-to-treat group was approximately 20%, and the reduction in the elevated baseline group (>5 CECs/ml) was approximately 33%. The fraction of iNOS-positive CECs was reduced approximately 29%.
CECs were isolated from whole blood by using CD146 Ab (an antibody to the CD146 antigen that is expressed on endothelial cells and leukocytes). After CEC isolation, a FITC (fluorescein isothiocyanate) conjugated CD105 Ab (a specific antibody for endothelial cells) is used to identify CECs using the CellSearch™ system. A fluorescent conjugate of CD45 Ab was added to stain the leukocytes, and these were then gated out. For a general overview of this method, see Blann et al., (2005), which is incorporated herein by reference in its entirety. CEC samples were also assessed for the presence of iNOS by immunostaining.

On to `COC(=O)[C@]12CCC(C)(C)C[C@H]1[C@H]1C(=O)C=C3[C@@]4(C)C=C(C#N)C(=O)C(C)(C)[C@@H]4CC[C@@]3(C)[C@]1(C)CC2` [RTA 402, methyl-2-cyano-3,12-dioxooleana-1,9-dien-28-oic acid], for which, in assay [1] (2 mg/kg orally once daily), the “Histological measures of kidney damage and inflammation” value was “significantly improved”. Also, the “BUN levels relative to vehicle-treated animals” value in assay [1] (2 mg/kg orally once daily beginning two days prior to surgery, p<0.01) was “significantly reduced”. Also, the “Serum creatinine levels relative to control animals” value in assay [2] and in assay [3] was “Significant reductions” each time. The A1c reduction is 0.50 in assay [4] (28 days, elevated baseline (≧7.0 at baseline), n=16) and 0.34 in assay [4] (28 days, intent-to-treat, n=21, on top of standard of care). Besides, the “Hemoglobin % A1c reduction” value was 0.50 % A1c in assay [4] (28 days, elevated baseline (≧7.0 at baseline), n=35) and “approximately 0.25 % A1c” in assay [4] (28 days, intent-to-treat, n=56). Further, the “GFR increase, response rate” value in assay [4] (28 days, n=22) is 86%. Moreover, the GFR improvement in assay [4] (28 days, patients with Stage 4 renal disease) is reported as > 30%. Besides, the “Mean % A1c reduction” value in assay [4] (28 days, patients with advanced (Stage 4) renal disease (GFR 15-29 ml/min)) is “approximately 0.77 % A1c”. For the same molecule, in assay [4] (serum creatinine based eGFR, creatinine clearance, BUN, serum phosphorus, serum uric acid, Cystatin C, Adiponectin, Angiotensin II), the “Eight measures of renal function and status” value is reported as “improve significantly”. For the same molecule, the “Reduction of mean number of CECs” value in assay [5] (28 days, elevated baseline group (>5 CECs/ml)) is reported as “approximately 33%”; in assay [5] (28 days, intent-to-treat group), “approximately 20%”. Further, the “Reduction in CECs” value in assay [5] (28 days, elevated baseline group, n=14, p=0.02) came to 40%; in assay [5] (28 days, intent-to-treat group, n=20), 27%. In addition, the “Reduction of the fraction of iNOS-positive CECs” value in assay [5] (28 days, immunostaining) was “approximately 29%”. The “Patients with a normal level for CECs post-treatment” value in assay [5] (of the elevated baseline group, n=14) is listed as “nine”. For the same molecule, in assay [5] (patients with elevated baseline), the “Normalization of CEC values (≦5 cells/mL), patients” value was 11 out of the 19.
